SMILES strings stand for the structures.

Assay [1] has as its system HEK293. Briefly: Cytotoxicity against HEK293 cells measured after 48 hrs by MTT assay. In kind it is cell-based. The following applies: Homo sapiens, HEK293, 48 h. (Tetrazolium assays rely on reduction of a dye to a coloured formazan, in cell work by metabolically active cells.)
Assay [2] deals with HeLa. Briefly: Antiproliferative activity against human HeLa cells measured after 48 hrs by MTT assay. Type of assay: functional, cell-based.
The nature of assay [3]: Antiproliferative activity against human HCT116 cells measured after 48 hrs by MTT assay. In kind it is functional, cell-based. The following applies: HCT-116, 48 h.
In assay [4] the test system is HepG2. Kind of assay: Antiproliferative activity against human HepG2 cells measured after 48 hrs by MTT assay. Type of assay: functional, cell-based. The following applies: HepG2, 48 h.
A short description of assay [5]: Antiproliferative activity against human PC3 cells measured after 48 hrs by MTT assay. In kind it is functional, cell-based. The conditions noted are these: PC-3, 48 h.
Assay [6] relates to HeLa. Kind of assay: Induction of cell cycle arrest in human HeLa cells assessed as accumulation at G2/M phase at 2 uM measured after 12 to 18 hrs by […] cell sorting analysis (reference value: 16.67%). Type of assay: functional.
Assay [7] deals with HeLa. Kind of assay: Induction of cell cycle arrest in human HeLa cells assessed as accumulation at S phase at 2 uM measured after 12 to 18 hrs by […] cell sorting analysis (reference value: 19.02%). In kind it is functional.
Assay [8] deals with HeLa. Kind of assay: Induction of cell cycle arrest in human HeLa cells assessed as accumulation at G2/M phase measured after 18 hrs by […] cell sorting analysis. In kind it is functional, cell-based.
Assay [9] relates to HeLa. Kind of assay: Induction of cell cycle arrest in human HeLa cells assessed as accumulation at G2/M phase at 8 uM measured after 12 to 18 hrs by […] cell sorting analysis (reference value: 16.67%). In kind it is functional.
Assay [10] deals with HeLa. Kind of assay: Induction of cell cycle arrest in human HeLa cells assessed as accumulation at S phase at 4 uM measured after 12 to 18 hrs by […] cell sorting analysis (reference value: 19.02%). Type of assay: functional.
In assay [11] the test system is HeLa. Kind of assay: Induction of cell cycle arrest in human HeLa cells assessed as accumulation at S phase at 8 uM measured after 12 to 18 hrs by […] cell sorting analysis (reference value: 19.02%). In kind it is functional.
Assay [12] relates to HeLa. Briefly: Induction of cell cycle arrest in human HeLa cells assessed as accumulation at G0/G1 phase at 2 uM measured after 12 to 18 hrs by […] cell sorting analysis (reference value: 64.31%). Type of assay: functional.
For assay [13], the system named is HeLa. Kind of assay: Induction of cell cycle arrest in human HeLa cells assessed as accumulation at G2/M phase at 4 uM measured after 12 to 18 hrs by […] cell sorting analysis (reference value: 16.67%). In kind it is functional.
The subject of assay [14] is HeLa. Kind of assay: Induction of cell cycle arrest in human HeLa cells assessed as accumulation at G0/G1 phase at 8 uM measured after 12 to 18 hrs by […] cell sorting analysis (reference value: 64.31%). Type of assay: functional.
The test system of assay [15] is HeLa. Briefly: Induction of cell cycle arrest in human HeLa cells assessed as accumulation at G0/G1 phase at 4 uM measured after 12 to 18 hrs by […] cell sorting analysis (reference value: 64.31%). In kind it is functional.

On to `COc1ccc(C(=O)CSc2nnc(-c3cc(OC)c(OC)c(OC)c3)n2N)cc1`, for which the IC50 (usually the point on the concentration scale where inhibition reaches its midpoint) was 100 µM in [1]; 17.4 µM in assay [2]; 1.24 µM in [3]; above 100 µM in assay [4]; 97.9 µM in assay [5].

Regarding `COc1cc(-c2nnc(SCC(=O)c3ccc(Br)cc3)n2N)cc(OC)c1OC`, the concentration for half-maximal inhibition (IC50) was 10.4 µM in assay [2], 9.23 µM in assay [3], 92.5 µM in assay [4] and above 100 µM in [5].

Take `COc1cc(-c2nnc(SCC(=O)NCCc3ccccc3)n2N)cc(OC)c1OC`: the IC50 in assay [2] was above 100 µM; in assay [3], above 100 µM; in [4] it was above 100 µM; in assay [5] it was 80.5 µM.

For `COc1cc(-c2nnc(SCC(=O)Nc3ccccc3F)n2N)cc(OC)c1OC`, the IC50 is above 100 µM in [1]; 38.2 µM in assay [2]; 1.16 µM in assay [3]; 18.7 µM in assay [4]; 36.7 µM in [5].

In the case of `COc1cc(-c2nnc(SCC(=O)NCCc3ccc(F)cc3)n2N)cc(OC)c1OC`, the IC50 is 66.5 µM in assay [2], above 100 µM in assay [3], above 100 µM in [4] and 56.1 µM in [5].

Take `COc1cc(NC(=O)CSc2nnc(-c3cc(OC)c(OC)c(OC)c3)n2N)cc(OC)c1OC`: the IC50 in [2], in [3], in assay [4] and in [5] was above 100 µM in each case.

As for `COc1cc(-c2nnc(SCC(=O)NCc3ccc(C)cc3)n2N)cc(OC)c1OC`, the IC50 in [2] is above 100 µM; in assay [3], above 100 µM; in assay [4], above 100 µM; in assay [5] it was 92.8 µM.

Turning to `COc1ccc(CNC(=O)CSc2nnc(-c3cc(OC)c(OC)c(OC)c3)n2N)cc1OC`, the IC50 in [2], in [3], in assay [4] and in assay [5] was above 100 µM each time.

On to `COc1cccc(NC(=O)CSc2nnc(-c3cc(OC)c(OC)c(OC)c3)n2N)c1`, for which the IC50 in [1] is 100 µM; in assay [2], 4.02 µM; in assay [3], 0.68 µM; in [4], above 100 µM; in [5], above 100 µM.

For `COc1cc(-c2nnc(SCC(=O)c3ccc(C(F)(F)F)cc3)n2N)cc(OC)c1OC`, the half-maximal inhibitory concentration (IC50) was 3.38 µM in assay [2], 16.7 µM in [3], above 100 µM in assay [4] and above 100 µM in assay [5].

On to `COc1ccc(CCNC(=O)CSc2nnc(-c3cc(OC)c(OC)c(OC)c3)n2N)cc1`, for which the IC50 in assay [2] was above 100 µM; in assay [3] it was above 100 µM; in [4] it was above 100 µM; in assay [5] it was 73.6 µM.

`COc1cc(-c2nnc(SCC(=O)Nc3ccccc3C)n2N)cc(OC)c1OC`: the IC50 in [2], in assay [3], in assay [4] and in assay [5] was above 100 µM each time.

Turning to `COc1cc(-c2nnc(SCC(=O)c3ccccc3)n2N)cc(OC)c1OC`, the IC50 in [2] is above 100 µM; in assay [3], 53 µM; in [4], 7.8 µM; in assay [5] it was above 100 µM.

Take `COc1cc(-c2nnc(SCC(=O)Nc3ccccc3)n2N)cc(OC)c1OC`: the IC50 in assay [2] was found to be 8.28 µM; in [3], 1.73 µM; in [4] it was 49.9 µM; in assay [5] it was 37.9 µM.

Regarding `O=c1[nH]cc(F)c(=O)[nH]1` [FLUOROURACIL], the IC50 is 57.2 µM in [2], 68.7 µM in [3] and 57 µM in assay [5].

In the case of `COc1cc(-c2nnc(SCC(=O)NCCc3ccc(Cl)cc3)n2N)cc(OC)c1OC`, the IC50 in assay [2] is 79.9 µM; in assay [3] it was 39.6 µM; in assay [4], above 100 µM; in assay [5], above 100 µM.

As for `COc1cc(-c2nnc(SCC(=O)NCc3ccc(Cl)cc3)n2N)cc(OC)c1OC`, the IC50 in assay [2], in [3], in [4] and in [5] was above 100 µM each time.

For `COc1cc(-c2nnc(SCC(=O)c3ccccc3F)n2N)cc(OC)c1OC`, the IC50 in [2] is 80.1 µM; in assay [3] it was 10.8 µM; in assay [4] it was 22.6 µM; in assay [5] it was 43.1 µM.

For the molecule `COc1cc(-c2nnc(SCC(=O)NCCc3ccc(C)cc3)n2N)cc(OC)c1OC`, the IC50 in assay [2] is above 100 µM; in assay [3], above 100 µM; in assay [4], above 100 µM; in [5], 41.3 µM.

`COc1cc(-c2nnc(SCC(=O)c3ccc(C)cc3)n2N)cc(OC)c1OC`: the IC50 was 100 µM in assay [1]; 2.94 µM in [2]; 0.37 µM in assay [3]; above 100 µM in [4]; 31.3 µM in [5]. Besides, the Activity in [6] is 32.55%; in assay [7] it was 14.07%; in [8], “Dose-dependent effect”; in [9], 78.81%; in [10], 17.42%; in [11], 13.81%. For the same molecule, the Activity in assay [12] is reported as 53.39%; in assay [13], 70.18%; in assay [14], 7.37%; in assay [15] it was 12.41%.

Take `COc1cc(-c2nnc(SCC(=O)c3ccc(F)c(F)c3)n2N)cc(OC)c1OC`: the 50% inhibitory concentration (IC50) in assay [2] is above 100 µM; in [3], 10.4 µM; in [4], above 100 µM; in assay [5], above 100 µM.

As for `COc1cc(-c2nnc(SCC(=O)c3ccc(F)cc3)n2N)cc(OC)c1OC`, the IC50 in assay [2] is 20.9 µM; in [3] it was 3.23 µM; in assay [4] it was 90.4 µM; in assay [5], above 100 µM.

For the molecule `COc1cc(-c2nnc(SCC(=O)c3cccc(Br)c3)n2N)cc(OC)c1OC`, the IC50 in assay [2] was 77.5 µM; in assay [3] it was 5.32 µM; in assay [4], 56 µM; in assay [5] it was above 100 µM.

As to `COc1cc(-c2nnc(SCC(=O)c3ccc(Cl)cc3)n2N)cc(OC)c1OC`, the IC50 was 13.1 µM in assay [2], 7.5 µM in assay [3], above 100 µM in [4] and above 100 µM in assay [5].

For `COc1cc(-c2nnc(SCC(=O)Nc3ccc(C)cc3)n2N)cc(OC)c1OC`, the IC50 was 79.4 µM in assay [1]; 4.77 µM in [2]; 3.45 µM in [3]; above 100 µM in [4]; 43.1 µM in assay [5].
